Assay results reported in US6897215B1, “Compounds having 5-HT6 receptor antagonist activity” (NPS Allelix Corp., priority 1999, dated 2005).
Read-outs that look alike come from different tables or passages of the source.

Tests used:
[1] = molecular target: T1, human 5-HT6 subtype of receptor (Homo sapiens, UniProt P50406); conditions: read-out: 5-HT6 receptor affinity (Ki); radioligand 3H-LSD, 60 minute incubation at 37° C.
[2] = molecular target: T1, human 5-HT6 subtype of receptor; assay: biochemical
[3] = tested on: a number of other receptors including other serotonin receptors such as 5-HT1A and 5-HT7; assay: selectivity over other receptors; conditions: 5-HT6 versus other receptors incl. 5-HT1A and 5-HT7
[4] = molecular target: T2, human 5-HT6 receptors (Homo sapiens, UniProt P50406); assay: functional adenylyl cyclase assay: cAMP accumulation in stably transfected HEK293 cells; format: cell-based; conditions: 1 uM serotonin
T2 construct: expressed in transfected cells; host or cells: HEK293 (stably transfected, G418 selection)
T2 sequence (P50406 whole entry): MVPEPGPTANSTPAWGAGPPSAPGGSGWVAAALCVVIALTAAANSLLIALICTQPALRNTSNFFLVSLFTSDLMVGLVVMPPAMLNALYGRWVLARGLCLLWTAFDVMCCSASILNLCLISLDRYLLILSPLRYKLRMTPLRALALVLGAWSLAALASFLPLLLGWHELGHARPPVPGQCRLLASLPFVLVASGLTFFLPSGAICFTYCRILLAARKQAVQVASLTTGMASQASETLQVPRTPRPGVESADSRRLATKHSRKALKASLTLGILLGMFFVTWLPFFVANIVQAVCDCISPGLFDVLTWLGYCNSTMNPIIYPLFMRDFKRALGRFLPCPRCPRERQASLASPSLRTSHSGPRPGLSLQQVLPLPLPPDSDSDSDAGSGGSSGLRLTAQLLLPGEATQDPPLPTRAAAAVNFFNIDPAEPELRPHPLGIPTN

T1 sequence (P50406 whole entry): as above

Ki [1] | Ki [2] | selectivity over other receptors [3] | IC50 [4] | antagonist property at the 5-HT6 receptor [4] | SMILES
800 pM | – | – | – | – | O=S(=O)(c1cccc2ccccc12)n1ccc2ccc(C3CCN4CCCC4C3)cc21 [Example 5F (12), 6-[(7-R,S)(8a-R,S)-Octahydroindolizin-7-yl]-1-naphthylsulfonyl-indole]
– | 700 pM | – | – | – | O=S(=O)(c1cccc2ccccc12)n1ccc2ccc(C3CCN4CCCC4C3)cc21 (single isomer, unassigned) [Example 5F (13)]
200 pM | – | good selectivity | 7200 pM | competitive antagonist | O=S(=O)(c1cccc2ccccc12)n1ccc2ccc(N3CCN4CCCC4C3)cc21 (stereo not drawn) [Example 4a, 6-[6,5-Bicyclopiperazinyl]-1-[1-naphthylenesulphonyl]indole]
